From US20130266590A1, “DIMERIC IAP INHIBITORS” (NOVARTIS AG, priority 2010, published 2013)
Counter-ions that a name gives are not always drawn. Like-named read-outs stand apart in the source and are kept apart here.

How the values were obtained:
XIAP-BIR3 = XIAP-BIR3 (Homo sapiens, UniProt P98170); test: Biacore SPR solution competition binding assay vs smac7mer peptide, XIAP-BIR3; details: 100 nM XIAP-BIR3, read-out: XIAP-BIR3 Binding Biacore (Competitive) EC50
Source text: (§1) The compounds described herein above were profiled using a cellular assay (using Panc3.27 tumor cells) and a binding assay to determine the competition between the compounds of the present invention and smac7mer peptide for XIAP-BIR3 and cIAP1-BIR3 binding groove occupancy.
(§2) The present method includes utility of a Surface plasmon resonance (SPR)-based biosensor (Biacore™, GE Healthcare, Uppsala, Sweden) to examine competition between the compounds of the present invention and smac7mer peptide for XIAP-BIR3 and cIAP1-BIR3 binding groove occupancy.
(§3) Biacore™ utilizes the phenomenon of surface plasmon resonance (SPR) to detect and measure binding interactions. In a typical Biacore experiment, one of the interacting molecules is immobilized on a flexible dextran matrix while the interacting partner is flowed over the derivatized surface. A binding interaction results in an increase in mass on the sensor surface and a corresponding direct change in the refractive index of the medium in the vicinity of the sensor surface. Changes in refractive index or signal are recorded in resonance units (R.U.) Signal changes due to association and dissociation of complexes are monitored in a non-invasive manner, continuously and in real-time, the results of which are reported in the form of a sensorgram.
(§4) Biacore™ T100 (GE Healthcare, Uppsala, Sweden) was used to conduct all experiments reported herein. Sensor surface preparation and interaction analyses were performed at 25° C. Buffer and Biacore reagents were purchased from GE Healthcare. Running buffer containing 10 mM Hepes, pH7.4, 150 mM sodium chloride, 1.25 mM Dithiothreitol, 2% Dimethyl sulfoxide and 0.05% polysorbate 20 was utilized throughout all experiments.
(§5) Biotinylated smac7mer peptide was diluted to 10 nM in running buffer and captured onto a sensor surface pre-derivatized with streptavidin (sensor chip SA) towards peptide surface densities in the range 40-100 R.U. Peptide captured surfaces were blocked with 500 μM PEO2-Biotin (Thermo Scientific).
(§6) Interaction analyses were performed by first equilibrating each compound within a six point seven fold compound dilution series in the range 1 μM to 0.06 nM with either 100 nM XIAP-BIR3 or 6 nM cIAP1-BIR3 for at least one hour during instrument start-up procedures. Protein compound mixtures were then injected over reference and smac7mer peptide surfaces in series for 60 seconds at a flow-rate of 60 μL/min. Surface regeneration was performed at the end of each analysis cycle by a 30 second injection of 10 mM Glycine, pH 2.5, 1M Sodium Chloride, 0.05% polysorbate 20. Additionally, control compound samples and control XIAP-BIR3 or cIAP1-BIR3 samples were prepared and run at regular intervals to monitor surface and assay performance.
(§7) Data analyses were carried out using Biacore™ T100 evaluation software v2.0 to validate assay quality. Binding level report points were plotted versus logarithmic compound concentration values and analyzed in Graphpad prism 5 via non-linear regression using a one-site competition model. EC50 values were generated and used as a measure of inhibitor potency.

cIAP1-BIR3 = cIAP1-BIR3 (Homo sapiens, UniProt Q13490); test: Biacore SPR solution competition binding assay vs smac7mer peptide, cIAP1-BIR3; details: 6 nM cIAP1-BIR3, read-out: CIAP-BIR3 Binding Biacore (Competitive) EC50
Source text: as §1, §2, §3, §4, §5, §6, §7

Panc3.27 tumor cells = test: Cellular assay: Panc3.27 tumor cell proliferation (Cell Titer Glo); format: cell-based; details: Panc3.27 cells, 4000 cells per well, 72 hour growth, CTG readout, percent control growth; read-out: PANC proliferation IC50
Method: as §1
Cellular Assay—Treatment of Panc3.27 Tumor Cells with Dimeric IAP Antagonists
On day one adherent Panc3.27 cells are plated into two 96-well, clear, flat bottom plates. All wells in row A contain 90 uL of media. All wells in rows B-G contain a total volume of 90 uL per well and 4000 cells per well for Panc3.27 cell lines. Plates are then incubated overnight for 18 hours at 37° C., 5% CO2.
On day two cells are treated with the compounds of formula M-L-M′. Treatments are done in triplicate. The compounds are first serially diluted in DMSO and then added to media giving a final concentration of 0.2% DMSO when added to cells. Cells are treated with 10 uL of serially diluted compounds of formula M-L-M′ at a final concentration of 1000 nM, 200 nM, 40 nM, 8 nM, 1.6 nM, 0.32 nM, 0.06 nM, 0.013 nM, 0.0026 nM, and one untreated well. Plate two is used as a time zero plate.
To measure cell viability 50 uL of Cell Titer Glo (CTG) solution is added to row A, media only and B, cells and media. CTG is purchased from Promega Corporation catalog number G7573. The solution is prepared according to manufacturer's instructions. CTG measures the amount of ATP released from viable cells that is proportional to the number of cells in each well. After incubating for ten minutes with CTG plates are measured on a luminescent reader at 700 nm wavelength. Read time is approximately one second per well for a 96-well plate.
On day five 50 uL of CTG is added to plate one, rows A-G, incubated for 10 minutes at room temperature and read on a luminescent reader. Raw data is adjusted to account for the time zero plate as well as background noise. Triplicate values are averaged and percent control growth is calculated. Percent control growth is calculated using the following logical test: If well read data point (a) is greater than time zero data point (t=0), then 100*[(a)−(t=0)]/[(72 hour total growth)−(t=0)], OR 100*[(a)−(t=0)]/[(t=0)]. Data is represented by line graph with the concentration of compound on the x axis and percent control growth on the y axis.

[1] = SPR competition with captured smac7mer peptide, 25° C.

cIAP1-BIR3, sequence (Q13490 253-363 limits assumed): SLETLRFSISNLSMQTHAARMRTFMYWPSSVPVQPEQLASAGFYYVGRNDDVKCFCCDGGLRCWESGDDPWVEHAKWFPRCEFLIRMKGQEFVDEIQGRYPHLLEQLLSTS
XIAP-BIR3, sequence (P98170 241-356 limits assumed): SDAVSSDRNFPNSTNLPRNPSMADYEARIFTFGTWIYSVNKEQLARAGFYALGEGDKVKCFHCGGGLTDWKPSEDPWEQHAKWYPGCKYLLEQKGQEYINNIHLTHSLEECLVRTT

Structure (SMILES) | EC50 (XIAP-BIR3; [1]) | EC50 (cIAP1-BIR3; [1]) | IC50 (Panc3.27 tumor cells) | EC50 (XIAP-BIR3; Tested as the trifluoroacetate salt (footnote 2), SPR competition with smac7mer peptide) | EC50 (cIAP1-BIR3; Tested as the citrate salt (footnote 1), SPR competition with smac7mer peptide)
CN[C@@H](C)C(=O)N[C@H](C(=O)N1CCC[C@H]1c1cncc(-c2ccc(F)c(C(=O)NNC(=O)c3cc(-c4cncc([C@@H]5CCCN5C(=O)[C@@H](NC(=O)[C@H](C)NC)C5CCCCC5)c4)ccc3F)c2)c1)C1CCCCC1 [Example 2N-2] | 75.2 to 75.5 nM | 1.27 to 1.36 nM | 0.0026 to 0.02 nM | – | –
CN[C@@H](C)C(=O)N[C@H](C(=O)N1CCC[C@H]1c1cncc(-c2ccc(F)c(C(=O)NCCCOCCOCCCNC(=O)c3cc(-c4cncc([C@@H]5CCCN5C(=O)[C@@H](NC(=O)[C@H](C)NC)C5CCCCC5)c4)ccc3F)c2)c1)C1CCCCC1 [Example 2L-2] | 480 to 488 nM | 3.35 to 3.38 nM | 0.01 to 0.56 nM | – | –
CN[C@@H](C)C(=O)N[C@H](C(=O)N1CCC[C@H]1c1cncc(-c2ccc(F)c(C(=O)NCc3ccc(-c4ccc(CNC(=O)c5cc(-c6cncc([C@@H]7CCCN7C(=O)[C@@H](NC(=O)[C@H](C)NC)C7CCCCC7)c6)ccc5F)cc4)cc3)c2)c1)C1CCCCC1 [Example 2C-2, (S,S,S)—N,N′-(biphenyl-4,4′-diylbis(methylene))bis(5-(5-((S)-1-((S)-2-cyclohexyl-2-((S)-2-(methylamino)propanamido)acetyl)pyrrolidin-2-yl)pyridin-3-yl)-2-fluorobenzamide)] | – | 0.98 to 0.99 nM | < 0.0026 nM | 2330 to 2390 nM | –
CN[C@@H](C)C(=O)N[C@H](C(=O)N1CCC[C@H]1c1cncc(-c2ccc(F)c(C(=O)NCCCCCCNC(=O)c3cc(-c4cncc([C@@H]5CCCN5C(=O)[C@@H](NC(=O)[C@H](C)NC)C5CCCCC5)c4)ccc3F)c2)c1)C1CCCCC1 [Example 2F-1] | 305 to 306 nM | 1.34 to 1.36 nM | 0.0026 to 0.01 nM | – | –
CN[C@@H](C)C(=O)N[C@H](C(=O)N1CCC[C@H]1c1cncc(-c2ccc(F)c(C(=O)NCCNC(=O)c3cc(-c4cncc([C@@H]5CCCN5C(=O)[C@@H](NC(=O)[C@H](C)NC)C5CCCCC5)c4)ccc3F)c2)c1)C1CCCCC1 [Example 2A-1] | 135 to 136 nM | 1.1 to 1.11 nM | 2.11 to 7.69 nM | – | –
CN[C@@H](C)C(=O)N[C@H](C(=O)N1CCC[C@H]1c1cncc(-c2ccc(F)c(C(=O)NCCCCCCCCCCNC(=O)c3cc(-c4cncc([C@@H]5CCCN5C(=O)[C@@H](NC(=O)[C@H](C)NC)C5CCCCC5)c4)ccc3F)c2)c1)C1CCCCC1 [Example 2D-1] | 1520 to 1920 nM | 1.35 to 2.17 nM | 0.0026 to 0.15 nM | – | –
CN[C@@H](C)C(=O)N[C@H](C(=O)N1CCC[C@H]1c1cncc(-c2ccc(F)c(C(=O)NCCCOCCOCCOCCOCCOCCCNC(=O)c3cc(-c4cncc([C@@H]5CCCN5C(=O)[C@@H](NC(=O)[C@H](C)NC)C5CCCCC5)c4)ccc3F)c2)c1)C1CCCCC1 [Example 1A-1] | 353 to 359 nM | – | 0.15 to 2.87 nM | – | 1.55 to 1.6 nM
CN[C@@H](C)C(=O)N[C@H](C(=O)N1CCC[C@H]1c1cncc(-c2ccc(F)c(C(=O)N[C@H]3CC[C@H](NC(=O)c4cc(-c5cncc([C@@H]6CCCN6C(=O)[C@@H](NC(=O)[C@H](C)NC)C6CCCCC6)c5)ccc4F)CC3)c2)c1)C1CCCCC1 [Example 2K-1] | 321 to 322 nM | 1.65 to 1.66 nM | < 0.0026 nM | – | –
CN[C@@H](C)C(=O)N[C@H](C(=O)N1CCC[C@H]1c1cncc(-c2ccc(F)c(C(=O)NCCCCCCCCCCCCNC(=O)c3cc(-c4cncc([C@@H]5CCCN5C(=O)[C@@H](NC(=O)[C@H](C)NC)C5CCCCC5)c4)ccc3F)c2)c1)C1CCCCC1 [Example 2E-1] | > 1000 nM | 5.65 to 6.37 nM | 0.07 to 4.93 nM | – | –
CN[C@@H](C)C(=O)N[C@H](C(=O)N1CCC[C@H]1c1cncc(-c2ccc(F)c(C(=O)NCCCCNC(=O)c3cc(-c4cncc([C@@H]5CCCN5C(=O)[C@@H](NC(=O)[C@H](C)NC)C5CCCCC5)c4)ccc3F)c2)c1)C1CCCCC1 [Example 2I-1] | 318 to 326 nM | 2.79 to 2.8 nM | 0.0026 to 0.4 nM | – | –
CN[C@@H](C)C(=O)N[C@H](C(=O)N1CCC[C@H]1c1cncc(-c2ccc(F)c(C(=O)NCCCCCCCCNC(=O)c3cc(-c4cncc([C@@H]5CCCN5C(=O)[C@@H](NC(=O)[C@H](C)NC)C5CCCCC5)c4)ccc3F)c2)c1)C1CCCCC1 [Example 2G-1, (S,S,S)—N,N′-(octane-1,8-diyl)bis(5-(5-((S)-1-((S)-2-cyclohexyl-2-((S)-2-(methylamino)propanamido)acetyl)pyrrolidin-2-yl)pyridin-3-yl)-2-fluorobenzamide)] | 426 to 495 nM | 1.26 to 1.31 nM | 0.0026 to 0.03 nM | – | –
CN[C@@H](C)C(=O)N[C@H](C(=O)N1CCC[C@H]1c1cncc(-c2ccc(F)cc2CNC(=O)c2ccc(-c3ccc(C(=O)NCc4cc(F)ccc4-c4cncc([C@@H]5CCCN5C(=O)[C@@H](NC(=O)[C@H](C)NC)C5CCCCC5)c4)cc3)cc2)c1)C1CCCCC1 [Example 3A, N4,N4′-bis(2-(5-((S)-1-(S)-2-cyclohexyl-2-((S)-2-(methylamino)-propanamido)acetyl)pyrrolidin-2-yl)pyridin-3-yl)-5-fluorobenzyl)biphenyl-4,4′-dicarboxamide, trifluoroacetate] | 126 to 127 nM | 0.86 to 0.88 nM | 0.0026 to 0.0084 nM | – | –
CN[C@@H](C)C(=O)N[C@H](C(=O)N1CCC[C@H]1c1cncc(-c2ccc(F)c(C(=O)N3CC4(C3)CN(C(=O)c3cc(-c5cncc([C@@H]6CCCN6C(=O)[C@@H](NC(=O)[C@H](C)NC)C6CCCCC6)c5)ccc3F)C4)c2)c1)C1CCCCC1 [Example 2M-2] | 176 to 177 nM | 3.74 to 3.75 nM | 9.02 to 40.8 nM | – | –
CN[C@@H](C)C(=O)N[C@H](C(=O)N1CCC[C@H]1c1cncc(-c2ccc(F)c(C(=O)NCCOCCOCCNC(=O)c3cc(-c4cncc([C@@H]5CCCN5C(=O)[C@@H](NC(=O)[C@H](C)NC)C5CCCCC5)c4)ccc3F)c2)c1)C1CCCCC1 [Example 2H-1] | 244 to 252 nM | 1.84 to 1.89 nM | 0.03 to 0.07 nM | – | –
CN[C@@H](C)C(=O)N[C@H](C(=O)N1CCC[C@H]1c1cncc(-c2ccc(F)c(C(=O)NCCCOCCOCCOCCCNC(=O)c3cc(-c4cncc([C@@H]5CCCN5C(=O)[C@@H](NC(=O)[C@H](C)NC)C5CCCCC5)c4)ccc3F)c2)c1)C1CCCCC1 [Example 2J-2] | 156 nM | 1.39 to 1.4 nM | 0.03 to 0.59 nM | – | –
